Assay results: patent US20240025883A1, “PYRIMIDIN-2-YL SULFONAMIDE DERIVATIVES” (Hoffmann-La Roche Inc., priority 2021, published 2024)

Biological target: human GPR17 short isoform (Homo sapiens (Human), UniProt Q13304)
Experiment: GPR17 cAMP assay (hGPR17 cAMP, antagonist mode against EC80 of MDL29,951)
Type: cell-based
Conditions: CHO-K1 cells stably expressing human GPR17 short isoform; EC80 of agonist MDL29,951; forskolin 15 μM
Summary of the method: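 CHO-K1 cells stably expressing untagged human GPR17 short isoform, 10,000/well in HBSS/10 mM HEPES/0.1% BSA pH 7.4. Compounds added with EC80 MDL29,951 and 0.5 mM IBMX, then 15 μM forskolin 5 min later, 30 min at room temperature; cAMP by TR-FRET, normalized to reference antagonist, sigmoidal fit.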

Chain of human GPR17 short isoform (Q13304 29-367): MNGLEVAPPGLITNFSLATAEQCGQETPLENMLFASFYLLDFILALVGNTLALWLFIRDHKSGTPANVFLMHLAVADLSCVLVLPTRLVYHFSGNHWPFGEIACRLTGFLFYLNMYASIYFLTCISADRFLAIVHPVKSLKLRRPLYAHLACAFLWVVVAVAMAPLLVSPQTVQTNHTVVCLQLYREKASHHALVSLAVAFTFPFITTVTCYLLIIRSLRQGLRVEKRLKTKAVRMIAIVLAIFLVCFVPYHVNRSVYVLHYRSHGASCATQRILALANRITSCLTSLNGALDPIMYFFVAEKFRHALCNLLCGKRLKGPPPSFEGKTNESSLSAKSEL

Row | IC50 | Structure (SMILES)
1 | 290 nM | COc1nc(NS(=O)(=O)c2csc3nc(Cl)ccc23)nc(OC)c1OC(F)F [Example 271, 6-chloro-N-[5-(difluoromethoxy)-4,6-dimethoxy-pyrimidin-2-yl]thieno[2,3-b]pyridine-3-Sulfonamide]
2 | 22 nM | COc1nc(NS(=O)(=O)c2c[nH]c3c(F)c(C(F)F)ccc23)nc(OC)c1CC(F)F [Example 251, N-[5-(2,2-difluoroethyl)-4,6-dimethoxy-pyrimidin-2-yl]-6-(difluoromethyl)-7-fluoro-1H-indole-3-sulfonamide]
3 | 842 nM | COC(=O)c1c(C)ccc2c(S(=O)(=O)Nc3ncc(CC(F)F)c(OC)n3)c[nH]c12 [Example 291, 3-[[5-(2,2-Difluoroethyl)-4-Methoxy-Pyrimidin-2-Yl]Sulfamoyl]-6-Methyl-1H-Indole-7-Carboxylic Acid Methyl Ester]
4 | 13 nM | COc1nc(NS(=O)(=O)c2c[nH]c3cc(Cl)ccc23)nc(OC)c1CCF [Example 59, 6-chloro-N-[5-(2-fluoroethyl)-4,6-dimethoxy-pyrimidin-2-yl]-1H-indole-3-sulfonamide]
5 | 27 nM | COc1nc(NS(=O)(=O)c2c[nH]c3c4c(ccc23)COC4)nc(OC)c1CC(F)F [Example 229, N-[5-(2,2-difluoroethyl)-4,6-dimethoxy-pyrimidin-2-yl]-6,8-dihydro-1H-fur[3,4-g]indole-3-sulfonamide]
6 | 2680 nM | COc1nc(NS(=O)(=O)c2c[nH]c3cc(Cl)ccc23)ncc1OC1CC1 [Example 38, 6-chloro-N-[5-(cyclopropoxy)-4-methoxy-pyrimidin-2-yl]-1H-indole-3-sulfonamide]
7 | 148 nM | CCc1nc(NS(=O)(=O)c2c[nH]c3cc(Cl)ccc23)nc(OC)c1OCC(F)F [Example 77, 6-chloro-N-[5-(2,2-difluoroethoxy)-4-ethyl-6-methoxy-pyrimidin-2-yl]-1H-indole-3-sulfonamide]
8 | 89 nM | COc1nc(NS(=O)(=O)c2csc3nc(Br)ccc23)ncc1OCCF [Example 146, 6-bromo-N-[5-(2-fluoroethoxy)-4-methoxy-pyrimidin-2-yl]thieno[2,3-b]pyridine-3-sulfonamide]
9 | 128 nM | COc1nc(NS(=O)(=O)c2c[nH]c3cc(Cl)ccc23)nc(OC)c1OC(F)(F)CO [Example 275, 6-chloro-N-[5-(1,1-difluoro-2-hydroxy-ethoxy)-4,6-dimethoxy-pyrimidin-2-yl]-1H-indole-3-sulfonamide]
10 | 809 nM | COCCc1cnc(NS(=O)(=O)c2c[nH]c3cc(Cl)ccc23)nc1OC [Example 49, 6-chloro-N-[4-methoxy-5-(2-methoxyethyl)pyrimidin-2-yl]-1H-indole-3-sulfonamide]
11 | 218 nM | COc1nc(NS(=O)(=O)c2c[nH]c3cc(Cl)ccc23)ncc1OCCOC(F)F [Example 9, 6-chloro-N-[5-[2-(difluoromethoxy)ethoxy]-4-methoxy-pyrimidin-2-yl]-1H-indole-3-sulfonamide]
12 | 28 nM | COc1nc(NS(=O)(=O)c2c[nH]c3nc(Br)ccc23)nc(OC)c1OCC(F)F [Example 202, 6-bromo-N-[5-(2,2-difluoroethoxy)-4,6-dimethoxy-pyrimidin-2-yl]-1H-pyrrolo[2,3-b]pyridine-3-sulfonamide]
13 | 623 nM | COc1nc(NS(=O)(=O)c2c[nH]c3cc(Cl)ccc23)nc(CC#N)c1Br [Example 85, N-[5-bromo-4-(cyanomethyl)-6-methoxy-pyrimidin-2-yl]-6-chloro-1H-indole-3-sulfonamide]
14 | 30 nM | COc1nc(NS(=O)(=O)c2c[nH]c3cc(Br)ccc23)nc(OC)c1OCCF [Example 91, 6-bromo-N-[5-(2-fluoroethoxy)-4,6-dimethoxy-pyrimidin-2-yl]-1H-indole-3-sulfonamide]
15 | 119 nM | COc1nc(NS(=O)(=O)c2c[nH]c3cc(Cl)ccc23)ncc1SC [Example 36, 6-chloro-N-(4-methoxy-5-methylsulfanyl-pyrimidin-2-yl)-1H-indole-3-sulfonamide]
16 | 2060 nM | COc1nc(NS(=O)(=O)c2c[nH]c3cc(Cl)ccc23)nc(OC)c1OCC1COC1 [Example 263, 6-chloro-N-[4,6-dimethoxy-5-(oxetan-3-ylmethoxy)pyrimidin-2-yl]-1H-indole-3-sulfonamide]
17 | 17 nM | CCCc1c(OC)nc(NS(=O)(=O)c2c[nH]c3cc(Cl)ccc23)nc1OC [Example 58, 6-chloro-N-(4,6-dimethoxy-5-propyl-pyrimidin-2-yl)-1H-indole-3-sulfonamide]
18 | 244 nM | COc1nc(NS(=O)(=O)c2c[nH]c3cc(Cl)ccc23)nc(C)c1CC(F)F [Example 78, 6-chloro-N-[5-(2,2-difluoroethyl)-4-methoxy-6-methyl-pyrimidin-2-yl]-1H-indole-3-sulfonamide]
19 | 136 nM | COc1nc(NS(=O)(=O)c2c[nH]c3c([S+](C)[O-])c(Cl)ccc23)ncc1CC(F)F (stereo not shown) [Example 276, 6-chloro-N-[5-(2,2-difluoroethyl)-4-methoxy-pyrimidin-2-yl]-7-methylsulfinyl-1H-indole-3-sulfonamide]

Row | IC50 | Structure (SMILES)
20 | 89 nM | COc1nc(NS(=O)(=O)c2c[nH]c3nc(Cl)ccc23)nc(OC)c1OC(F)(F)CF [Example 171, 6-chloro-N-[4,6-dimethoxy-5-(1,1,2-trifluoroethoxy)pyrimidin-2-yl]-1H-pyrrolo[2,3-b]pyridine-3-sulfonamide]
21 | 17 nM | COc1nc(NS(=O)(=O)c2c[nH]c3c(F)c(Cl)ccc23)nc(OC)c1CC(F)F [Example 217, 6-chloro-N-[5-(2,2-difluoroethyl)-4,6-dimethoxy-pyrimidin-2-yl]-7-fluoro-1H-indole-3-sulfonamide]
22 | 14 nM | COc1nc(NS(=O)(=O)c2c[nH]c3cc(Cl)ccc23)nc(OC)c1OCC#N [Example 265, 6-chloro-N-[5-(cyanomethoxy)-4,6-dimethoxy-pyrimidin-2-yl]-1H-indole-3-sulfonamide]
23 | 102 nM | COc1nc(NS(=O)(=O)c2c[nH]c3nc(C(F)F)ccc23)nc(OC)c1OCC#N [Example 99, N-[5-(cyanomethoxy)-4,6-dimethoxy-pyrimidin-2-yl]-6-(difluoromethyl)-1H-pyrrolo[2,3-b]pyridine-3-sulfonamide]
24 | 21 nM | COc1nc(NS(=O)(=O)c2c[nH]c3c(F)c(Br)ccc23)nc(OC)c1OC(F)F [Example 241, 6-bromo-N-[5-(difluoromethoxy)-4,6-dimethoxy-pyrimidin-2-yl]-7-fluoro-1H-indole-3-sulfonamide]
25 | 51 nM | COc1nc(NS(=O)(=O)c2csc3cc(Cl)ccc23)ncc1OCCF [Example 24, 6-chloro-n-[5-(2-fluoroethoxy)-4-methoxy-pyrimidin-2-yl]benzothiophene-3-sulfonamide]
26 | 628 nM | COc1nc(NS(=O)(=O)c2c[nH]c3cc(Cl)ccc23)ncc1OCCC(F)(F)F [Example 40, 6-chloro-N-[4-methoxy-5-(3,3,3-trifluoropropoxy)pyrimidin-2-yl]-1H-indole-3-sulfonamide]
27 | 26 nM | COc1nc(NS(=O)(=O)c2c[nH]c3c(N(C)C)c(Cl)ccc23)nc(OC)c1CC(F)F [Example 115, 6-chloro-N-[5-(2,2-difluoroethyl)-4,6-dimethoxy-pyrimidin-2-yl]-7-(dimethylamino)-1H-indole-3-sulfonamide]
28 | 76 nM | COc1nc(NS(=O)(=O)c2c[nH]c3nc(Cl)ccc23)nc(OC)c1Br [Example 31, N-(5-bromo-4,6-dimethoxy-pyrimidin-2-yl)-6-chloro-1h-pyrrolo[2,3-b]pyridine-3-sulfonamide]
29 | 353 nM | CCCc1ccc2c(S(=O)(=O)Nc3ncc(CC(F)F)c(OC)n3)c[nH]c2c1 [Example 153, N-[5-(2,2-difluoroethyl)-4-methoxypyrimidin-2-yl]-6-propyl-1H-indole-3-sulfonamide]
30 | 215 nM | COc1nc(NS(=O)(=O)c2c[nH]c3cc(Cl)ccc23)nc(OCCF)c1Br [Example 14, N-[5-bromo-4-(2-fluoroethoxy)-6-methoxy-pyrimidin-2-yl]-6-chloro-1H-indole-3-sulfonamide]
31 | 18 nM | COc1nc(NS(=O)(=O)c2c[nH]c3c(F)c(Cl)ccc23)nc(OC)c1OCC#N [Example 219, 6-chloro-N-[5-(cyanomethoxy)-4,6-dimethoxy-pyrimidin-2-yl]-7-fluoro-1H-indole-3-sulfonamide]
32 | 116 nM | COc1nc(NS(=O)(=O)c2csc3cc(Cl)ccc23)ncc1CCC(F)F [Example 155, 6-chloro-N-[5-(3,3-difluoropropyl)-4-methoxy-pyrimidin-2-yl]benzothiophene-3-sulfonamide]
33 | 961 nM | COc1nc(NS(=O)(=O)c2c[nH]c3c(Br)cccc23)ncc1CC(F)F [Example 129, 7-bromo-N-[5-(2,2-difluoroethyl)-4-methoxy-pyrimidin-2-yl]-1H-indole-3-sulfonamide]
34 | 20800 nM | COc1nc(NS(=O)(=O)c2c[nH]c3cc(Cl)ccc23)nc(CC2CC2)c1Br [Example 80, N-[5-bromo-4-(cyclopropylmethyl)-6-methoxy-pyrimidin-2-yl]-6-chloro-1H-indole-3-sulfonamide]
35 | 19 nM | COc1nc(NS(=O)(=O)c2c[nH]c3cc(Br)ccc23)nc(OC)c1OCC#N [Example 246, 6-bromo-N-[5-(cyanomethoxy)-4,6-dimethoxy-pyrimidin-2-yl]-1H-indole-3-sulfonamide]
36 | 60 nM | COc1nc(NS(=O)(=O)c2c[nH]c3cc(Cl)ccc23)ncc1OC(F)(F)C(F)F [Example 43, 6-chloro-N-[4-methoxy-5-(1,1,2,2-tetrafluoroethoxy)pyrimidin-2-yl]-1H-indole-3-sulfonamide]
37 | 33 nM | COc1nc(NS(=O)(=O)c2c[nH]c3nc(Cl)ccc23)nc(OC)c1C [Example 118, 6-chloro-N-(4,6-dimethoxy-5-methyl-pyrimidin-2-yl)-1H-pyrrolo[2,3-b]pyridine-3-sulfonamide]
